Test: Microcalorimetric study of amorphous material
Type: physicochemical
Conditions: microcalorimetric study / detected in this work

Structure (SMILES): CC(C)(C)NCC(O)c1ccc(O)c(CO)c1 (stereo not shown) [salbutamol]
- amorphous (unstable) material: some amorphous material
